According to US20220339094A1, “NOVEL SKIN CARE COMPOSITION” (BEIERSDORF AG, priority 2019, published 2022):

Assays:
C. acnes strain C3 = assay: Minimum inhibitory concentration (MIC) of cosmetic excipients, strain C3; type: cell-based, Cutibacterium acnes; conditions: % w/vol, anaerobic 3 days at 37° C, visual growth scoring
Procedure: (§1) In microbiology, the MIC is the lowest concentration of a chemical which prevents visible growth of bacterium. The resulted MIC value depends both on the microorganism and the test compound. The MIC is determined by preparing concentrations series of the test compound in vitro, incubating the solutions with the separate batches of cultured bacteria, and measuring the results using agar dilution or broth microdilution. For the experiments with C. acnes strains C3 and K8, media comprising yeast extract soy peptone and dextrose were used. The MIC is determined by turbidity.
(§2) A total of 125 cosmetic excipients were tested for their compatibility with C. acnes strains C3 and K8. Hydrophilic compounds were tested in a 96-well plate liquid broth format, poorly soluble compounds were pre-dissolved in DMSO before dilution in liquid broth and hydrophobic or solid compounds were tested in an agar well diffusion test assay. The different dilutions of the test excipients in media were prepared in Falcon tubes and then distributed in a deep well plate using a multistepper. Each well received 1.2 ml and was subsequently inoculated with 120 μl of C. acnes bacteria suspension (strain C3 and K8). From the deep well plate 200 μl were transferred in each well of a clear 96 well replicate plate. The leftover was discarded. The plates were then incubated anaerobically for 3 days at 37° C. Following incubation, the test plates were visually examined and wells were scored for growth or complete growth inhibition to define the minimum inhibitory concentration.
(§3) These excipients are listed in the below table with their compatibility values for C. acnes strains C3 and K8. The compatibility values represent the MIC value of the listed ingredients with the tested C. acnes strains. At this concentration [% w/vol] the tested compound starts interfering with the growth of the tested strains. The compounds can be used in formulations at concentrations below this concentration.

C. acnes strain K8 = assay: Minimum inhibitory concentration (MIC) of cosmetic excipients, strain K8; type: cell-based, Cutibacterium acnes; conditions: % w/vol, anaerobic 3 days at 37° C, visual growth scoring
Procedure: as §1, §2, §3

| Molecule | COMPATABILITY VALUE C3 (MIC) (C. acnes strain C3) | COMPATABILITY VALUE K8 (MIC) (C. acnes strain K8) |
| --- | --- | --- |
| CCCCCCC(O)CO (stereo not drawn) [caprylyl glycol] | 0.18% | 0.18% |
| O=C(O)CC(O)(CC(=O)O)C(=O)O [citric acid] | – | 0.08% |
| CC(CO)CO [methylpropanediol] | 4.00% | 4.00% |
| CC(=O)Oc1c(C)c(C)c2c(c1C)CCC(C)(CCC[C@H](C)CCC[C@H](C)CCCC(C)C)O2 (stereo partly drawn) [tocopheryl acetate] | – | 1.00% |
| ethylhexyl cocoate | 10.00% | 10.00% |
| peg-40 hydrogenated castor oil | 1.00% | 1.00% |
| tocopherol | 1.50% | 1.50% |
